# Test results from patent publication US20230292776A1, “GAS PHASE TREATMENT OF PRODUCE” (priority 2022, published 2023).
# Tests used:
# [1] = test system: avocados; parameters: species or system avocado; details: in vivo
# Experimental: Example 11. The ripening characteristics of avocados exposed to AITC vapor was analyzed. Treatment groups consisted of avocados that were: exposed to the vapor of 125 μL of AITC in a Petri dish for 30 min and 18 hours; exposed to the vapor of 500 μL of AITC for 30 minutes and 18 hours; untreated and kept 18 hours in a bin; and treated with a coating agent. Two sets of the preceding test groups were studied. One set was treated when cold along with coated fruit (i.e., fruit treated with a coating agent (95 wt % glyceryl monostearate and 5 wt % sodium stearate) and another set was treated when warm (one day out of cold storage). Daily measurements were made of respiration and firmness (using a durometer). At the start of the test, the avocados were placed in cold storage. After one day, the cold treated avocados were treated with AITC directly after removal from cold storage. The coated group was treated at this time. The warm treated avocados were allowed to warm to room temperature. On the second day, measurements were begun on the cold treated avocados and AITC treatments began on the warm treated samples. On the third day, measurements began on the warm treated groups. […]
# Example 23: The ripening characteristics of avocados exposed to AITC vapor, a coating agent (95 wt % glyceryl monostearate and 5 wt % sodium stearate), and AITC plus the coating agent was analyzed. […]
# [2] = test system: mold; experiment: AITC vapor against mold growth on produce in an airtight bin (general description); type: in vivo
# Experimental: The plurality of produce items is contacted with the antimicrobial agent for a length of time in a range of 1 minute to 100 hours (e.g., 10 minutes to 1 hour). The length of time is dependent on a variety of factors, such as type of produce, target pathogen, and the degree to which the enclosure is sealed. Examples include exposure times between 15 minutes and 96 hours for allyl isothiocyanate (AITC) in an airtight bin. […] Lower antimicrobial agent concentrations with longer exposure times or higher antimicrobial concentrations with shorter exposure times can also be used. For example, the plurality of produce items is contacted with the antimicrobial agent for a length of time in a range of 15 minute to 72 hours.
# A concentration of the antimicrobial agent in the headspace of the enclosure is typically in a range of about 20 parts per million by volume (ppmv) to about 5000 ppmv (e.g., about 550 ppmv to about 4800 ppmv, or about 25 ppmv to about 1250 ppmv). Depending on type of produce and exposure time in the enclosure, antimicrobial agent concentrations greater than about 2200 ppmv can sometimes damage the produce. […] In some embodiments, the antimicrobial agent is provided in a concentration to the enclosure in a headspace at least about 1200 ppmv, at least about 1250 ppmv, or about 1250 ppmv to about 5000 ppmv, or about 1250 ppmv to about 4900 ppmv.
# [3] = test system: non-Pd latent fungal infection; experiment: AITC vapor against non-Pd latent fungal infection in mandarins; type: in vivo; details: Example 5; 125 μL (730 ppm), 1 hour exposure
# Experimental: Example 5. The antifungal activity of a range of AITC vapor exposure times was tested to determine the effects against Pd in mandarins. All samples were wounded by puncturing with a screw. Mandarins were infected by dispensing 1000 Pd spores suspended in 10 μL of water in the wound. The fruit was then placed in an airtight container, 125 μL of AITC was dispensed onto a Whatman filter paper disc, the disc suspended in front of a battery-powered fan, and the container closed for 15 minutes to 2 hours. The test groups were then left at ambient temperature, high humidity, and assessed for Pd mold after 6 days. The test groups consisted of mandarins that were: uninfected and untreated; infected and untreated; infected and treated with 0.5 g/L imazalil; infected, treated with 125 μL of AITC on the filter paper, and exposed to the vapor for 15 minutes, 30 minutes, 1 hour, and 2 hours. […] A non-Pd latent fungal infection confounded results for the imazalil control and the 1 hour AITC treatment. […] A 30 minute exposure to an AITC vapor concentration of 730 ppm appeared to either substantially prevent mold infection or reduce the severity of infection. Longer exposure time increased the antifungal efficacy. […] Longer exposure times were effective at largely eliminating these pathogens.
# [4] = test system: Botrytis cinerea (Bc); experiment: Antifungal activity of AITC vapor and coating agent against Botrytis cinerea (Bc) in strawberries; type: in vivo; details: Example 17; suspended strawberries; day 5
smiles,measurement,setting,value
"C=CCN=C=S [AITC, allyl isothiocyanate]",effect on avocado peel and firmness,[1],causes darkening and thickening of the avocado peel and a prolonged feeling a firmness
same,mold growth on the produce,"[2]; AITC concentration of 1000 ppm, exposure time of 15 minutes, airtight bin",slowed mold growth on the produce
same,efficacy against mold on the produce,"[2]; AITC concentration of 1000 ppm, exposure time of 30 min or longer",good efficacy
same,effect on mold growth,[2]; AITC concentrations in a range of 550 ppmv to 4800 ppmv,some inhibitory effect on mold growth
same,effect on mold growth,[2]; AITC concentrations over 1000 ppmv,tended to be completely inhibitory
same,response of latent pathogens to AITC vapor,[3],substantially resistant to AITC vapor
same,reduction in incidence of mold versus untreated test group,[4],over 80%
